Experimental data taken from patent US20110135671A1, “PURINE DERIVATIVES FOR USE IN THE TREATMENT OF ALLERGIC, INFLAMMATORY AND INFECTIOUS DISEASES” (GLAXOSMITHKLINE LLC, priority 2008, published 2011).
Where a name gives a salt, the structure may show the parent alone.

What follows are compounds tested on Interferon-α (assay: Induction of Interferon-α using cryopreserved human PBMCs). Conditions: PBMC, 24 h, normalised to 1 uM resiquimod, read-out: mean pEC50 for induction of Interferon-α (converted).
Type: cell-based
Experimental: Assay for the Induction of Interferon-α using Cryopreserved Human Peripheral Blood Mononuclear Cells (PBMCs)
Compounds were dissolved in DMSO. Serial 2-fold dilutions with DMSO were prepared and 0.25 μl dispensed into 384-well clear Greiner polypropylene plates.
Blood samples of up to 200 ml were obtained from healthy human donors. Whole blood in 25 ml volumes was overlaid onto 15 ml Ficoll gradients in Leucosep tubes, and centrifuged at 1000 g for 20 min. Cells in the band at the plasma/histopaque interface were carefully removed and washed twice with PBS (centrifuged at 400 g for 5 min to harvest). The final pellet was resuspended in freezing medium (90% Heat-inactivated serum, 10% DMSO) to a cell concentration of 4×10^7 cells/ml. The resuspended cells were then cryopreserved (frozen) using a rate controlled freezer, and stored at −140° C. for up to 4 months.
Incubation and Assay for Interferon-α
Immediately prior to assay, vials of cryopreserved (frozen) PBMCs were thawed rapidly in a water bath at 37° C. A 1:10 dilution of the cells in trypan blue was prepared and counted. The PBMCs were then diluted in growth media [RPMI 1640 containing 10% fetal calf serum (invitrogen), Penicillin+Streptavidin (Gibco cat. # 25030-024, 1:50), L-Glutamine 2 mM, and 1000 units/ml recombinant human IFN-gamma (Preprotech catalogue #300-02)] to a density of 1×10^6 cells/ml, and 50 ul/well dispensed to 384-well clear Greiner polypropylene plates containing 0.25 μl DMSO or test compound in 0.25 μl DMSO. […] Plates were incubated for 24 h at 37° C. in 5% CO2.
A multi-isoform immunoassay was used to quantify IFN-α in PBMC supernatants. Rabbit polyclonal antibody against human IFN-α (catalogue number 31101, Stratech Scientific) was diluted 1:10000 in assay buffer (RPMI 1640 containing 10% fetal calf serum, Invitrogen) and 20 μl was added to each well of an MSD (Meso-Scale Discovery) single small-spot 384-well GAR (goat anti-rabbit antibody coated) plate. The plate was incubated for 1 h at room temperature with vigorous shaking. Following three washes with PBS, 20 μl of cell supernatant were added to each well of the plate. The plate was then incubated for 1 h at room temperature with vigorous shaking. A pair of monoclonal antibodies to IFN-α (catalogue numbers 21100 and 21112, Stratech Scientific) were labelled with sulfo-TAG (MSD), diluted 1:1000 in assay buffer and 20 μl added to each well of the plate. The plate was further incubated for 1 h at room temperature with vigorous shaking. Following three washes with PBS, 30 μl of ×2 T buffer (MSD) was added to each well and the plate was read on an MSD Sector 6000 plate reader.
Data were normalised to internal plate controls of 1 uM resiquimod (n=16) and DMSO (n=16). pEC50 values were derived by 4-parameter curve fit with IRLS in ActivityBase, from 11-point, two-fold serial dilution of test compounds.
`CCCCNc1nc(N)c2[nH]c(=O)n(CCCCN3CCN(CCCC)CC3)c2n1` [Example 39, 6-Amino-2-(butylamino)-9-[4-(4-butyl-1-piperazinyl)butyl]-7,9-dihydro-8H-purin-8-one] was tested, and the EC50 was < 3.16 µM.
In the case of `CCCCOc1nc(N)c2[nH]c(=O)n(CCN3CCN(C4CCCCC4)CC3)c2n1` [Example 2, 6-Amino-2-(butyloxy)-9-[2-(4-cyclohexyl-1-piperazinyl)ethyl]-7,9-dihydro-8H-purin-8-one dihydrochloride salt], the EC50 is reported as < 3.16 µM.
For `CCCCOc1nc(N)c2[nH]c(=O)n(CCCCCN3CCN(CC)CC3)c2n1` [Example 47, 6-Amino-2-(butyloxy)-9-[5-(4-ethyl-1-piperazinyl)pentyl]-7,9-dihydro-8H-purin-8-one], the EC50 was < 3.16 µM.
With `CCCCOc1nc(N)c2[nH]c(=O)n(CCCCCN3CCN(CC4CCCC4)CC3)c2n1` [Example 66, 6-Amino-2-(butyloxy)-9-{5-[4-(cyclopentylmethyl)-1-piperazinyl]pentyl}-7,9-dihydro-8H-purin-8-one] the EC50 was < 3.16 µM.
With `CC(C)N1CCN(CCCCn2c(=O)[nH]c3c(N)nc(OC4CCC4)nc32)CC1` [Example 71, 6-Amino-2-(cyclobutyloxy)-9-{4-[4-(1-methylethyl)-1-piperazinyl]butyl}-7,9-dihydro-8H-purin-8-one] the EC50 was < 3.16 µM.
For `CCCCOc1nc(N)c2[nH]c(=O)n(CCCN3CCN(C4CCCCC4)CC3)c2n1` [Example 15, 6-Amino-2-(butyloxy)-9-[3-(4-cyclohexyl-1-piperazinyl)propyl]-7,9-dihydro-8H-purin-8-one], the EC50 was < 3.16 µM.
With `CCCCNc1nc(N)c2[nH]c(=O)n(CCCN3CCN(C4CCCCC4)CC3)c2n1` [Example 25, 6-Amino-2-(butylamino)-9-[3-(4-cyclohexyl-1-piperazinyl)propyl]-7,9-dihydro-8H-purin-8-one] the EC50 was < 3.16 µM.
For `CCCCOc1nc(N)c2[nH]c(=O)n(CCCCCN3CCNCC3)c2n1` [Example 45, 6-Amino-2-(butyloxy)-9-[5-(1-piperazinyl)pentyl]-7,9-dihydro-8H-purin-8-one], the EC50 was < 3.16 µM.
For `CCCCOc1nc(N)c2[nH]c(=O)n(CCCCN3CCN(CCC)CC3)c2n1` [Example 28, 6-Amino-2-(butyloxy)-9-[4-(4-propyl-1-piperazinyl)butyl]-7,9-dihydro-8H-purin-8-one], the EC50 was < 3.16 µM.
For `CCC[C@@H](C)Nc1nc(N)c2[nH]c(=O)n(CCCCN3CCN(C(C)C)CC3)c2n1` [Example 74, 6-Amino-2-{[(1R)-1-methylbutyl]amino}-9-{4-[4-(1-methylethyl)-1-piperazinyl]butyl}-7,9-dihydro-8H-purin-8-one], the EC50 was < 3.16 µM.
With `CCCCNc1nc(N)c2[nH]c(=O)n(CCCN3CCN(C(C)C)CC3)c2n1` [Example 19, 6-Amino-2-(butylamino)-9-{3-[4-(1-methylethyl)-1-piperazinyl]propyl}-7,9-dihydro-8H-purin-8-one] the EC50 was < 3.16 µM.
`CCCCOc1nc(N)c2[nH]c(=O)n(CCCN3CCN(CC4CC4)CC3)c2n1` [Example 13, 6-Amino-2-(butyloxy)-9-{3-[4-(cyclopropylmethyl)-1-piperazinyl]propyl}-7,9-dihydro-8H-purin-8-one] was tested, and the EC50 was < 3.16 µM.
`CCCCOc1nc(N)c2[nH]c(=O)n(CCCN3CCN(C4CCCC4)CC3)c2n1` [Example 14, 6-Amino-2-(butyloxy)-9-[3-(4-cyclopentyl-1-piperazinyl)propyl]-7,9-dihydro-8H-purin-8-one] was tested, and the EC50 was < 3.16 µM.
For `CCCCNc1nc(N)c2[nH]c(=O)n(CCCN3CCN(CCCC)CC3)c2n1` [Example 20, 6-Amino-2-(butylamino)-9-[3-(4-butyl-1-piperazinyl)propyl]-7,9-dihydro-8H-purin-8-one], the EC50 was < 3.16 µM.
With `CCCCNc1nc(N)c2[nH]c(=O)n(CCCCN3CCN(C4CCCC4)CC3)c2n1` [Example 43, 6-Amino-2-(butylamino)-9-[4-(4-cyclopentyl-1-piperazinyl)butyl]-7,9-dihydro-8H-purin-8-one] the EC50 was < 3.16 µM.
For `CC[C@H](C)Oc1nc(N)c2[nH]c(=O)n(CCCCN3CCN(C(C)C)CC3)c2n1` [Example 68, 6-Amino-9-{4-[4-(1-methylethyl)-1-piperazinyl]butyl}-2-{[(1S)-1-methylpropyl]oxy}-7,9-dihydro-8H-purin-8-one], the EC50 was < 3.16 µM.
For `CCCCOc1nc(N)c2[nH]c(=O)n(CCCN3CCN(CC(C)C)CC3)c2n1` [Example 11, 6-Amino-2-(butyloxy)-9-{3-[4-(2-methylpropyl)-1-piperazinyl]propyl}-7,9-dihydro-8H-purin-8-one], the EC50 was < 3.16 µM.
In the case of `CCC[C@H](C)Oc1nc(N)c2[nH]c(=O)n(CCCCCN3CCN(C)CC3)c2n1` [Example 50, 6-Amino-2-{[(1S)-1-methylbutyl]oxy}-9-[5-(4-methyl-1-piperazinyl)pentyl]-7,9-dihydro-8H-purin-8-one], the EC50 is reported as < 3.16 µM.
`CCCCNc1nc(N)c2[nH]c(=O)n(CCN3CCN(C4CCCCC4)CC3)c2n1` [Example 5, 6-Amino-2-(butylamino)-9-[2-(4-cyclohexyl-1-piperazinyl)ethyl]-7,9-dihydro-8H-purin-8-one] was tested, and the EC50 was < 3.16 µM.
`CCCCNc1nc(N)c2[nH]c(=O)n(CCCN3CCN(C4CCCC4)CC3)c2n1` [Example 24, 6-Amino-2-(butylamino)-9-[3-(4-cyclopentyl-1-piperazinyl)propyl]-7,9-dihydro-8H-purin-8-one] was tested, and the EC50 was < 3.16 µM.
`CCCCOc1nc(N)c2[nH]c(=O)n(CCCN3CCN(C(C)C)CC3)c2n1` [Example 9, 6-Amino-2-(butyloxy)-9-{3-[4-(1-methylethyl)-1-piperazinyl]propyl}-7,9-dihydro-8H-purin-8-one] was tested, and the EC50 was < 3.16 µM.
With `CC(C)Oc1nc(N)c2[nH]c(=O)n(CCCCCN3CCN(C(C)C)CC3)c2n1` [Example 70, 6-Amino-2-[(1-methylethyl)oxy]-9-{5-[4-(1-methylethyl)-1-piperazinyl]pentyl}-7,9-dihydro-8H-purin-8-one] the EC50 was < 3.16 µM.
In the case of `CCCCOc1nc(N)c2[nH]c(=O)n(CCCCCN3CCN(C4CCCC4)CC3)c2n1` [Example 63, 6-Amino-2-(butyloxy)-9-[5-(4-cyclopentyl-1-piperazinyl)pentyl]-7,9-dihydro-8H-purin-8-one], the EC50 is reported as < 3.16 µM.
For `CCCCNc1nc(N)c2[nH]c(=O)n(CCCCN3CCN(CC4CC4)CC3)c2n1` [Example 42, 6-Amino-2-(butylamino)-9-{4-[4-(cyclopropylmethyl)-1-piperazinyl]butyl}-7,9-dihydro-8H-purin-8-one], the EC50 was < 3.16 µM.
For `CCCCOc1nc(N)c2[nH]c(=O)n(CCCCN3CCN(CC4CC4)CC3)c2n1` [Example 33, 6-Amino-2-(butyloxy)-9-{4-[4-(cyclopropylmethyl)-1-piperazinyl]butyl}-7,9-dihydro-8H-purin-8-one], the EC50 was < 3.16 µM.
`CCCC[C@H](C)Oc1nc(N)c2[nH]c(=O)n(CCCCN3CCN(C(C)C)CC3)c2n1` [Example 69, 6-Amino-9-{4-[4-(1-methylethyl)-1-piperazinyl]butyl}-2-{[(1S)-1-methylpentyl]oxy}-7,9-dihydro-8H-purin-8-one] was tested, and the EC50 was < 3.16 µM.
For `CCC[C@H](C)Oc1nc(N)c2[nH]c(=O)n(CCCCCN3CCN(C(C)(C)C)CC3)c2n1` [Example 53, 6-Amino-9-{5-[4-(1,1-dimethylethyl)-1-piperazinyl]pentyl}-2-{[(1S)-1-methylbutyl]oxy}-7,9-dihydro-8H-purin-8-one], the EC50 was < 3.16 µM.
In the case of `CCCCNc1nc(N)c2[nH]c(=O)n(CCCN3CCN(C)CC3)c2n1` [Example 16, 6-Amino-2-(butylamino)-9-[3-(4-methyl-1-piperazinyl)propyl]-7,9-dihydro-8H-purin-8-one], the EC50 is reported as < 3.16 µM.
